Molecules are shown by their SMILES. Marks after values point to notes of the source that are not given here.

In one assay the target is PAK1 (Homo sapiens, UniProt Q13153). Kind of assay: PAK1 FRET-based Z'-Lyte assay. The following applies: at least two duplicate experiments, SEM < ±20%. The assay is classed as biochemical.
The test system of another assay is A549. Briefly: Wound-healing assay, A549 cell migration. The assay is classed as cell-based, human. The note with it: 20 μmol/L.
In a further assay the target is PAK4 (Homo sapiens, UniProt O96013). Kind of assay: PAK4 HTRF assay. Format: biochemical. For orientation: In TR-FRET formats the signal depends on donor and acceptor labels being close together.
Sequence of PAK4 (O96013 whole entry): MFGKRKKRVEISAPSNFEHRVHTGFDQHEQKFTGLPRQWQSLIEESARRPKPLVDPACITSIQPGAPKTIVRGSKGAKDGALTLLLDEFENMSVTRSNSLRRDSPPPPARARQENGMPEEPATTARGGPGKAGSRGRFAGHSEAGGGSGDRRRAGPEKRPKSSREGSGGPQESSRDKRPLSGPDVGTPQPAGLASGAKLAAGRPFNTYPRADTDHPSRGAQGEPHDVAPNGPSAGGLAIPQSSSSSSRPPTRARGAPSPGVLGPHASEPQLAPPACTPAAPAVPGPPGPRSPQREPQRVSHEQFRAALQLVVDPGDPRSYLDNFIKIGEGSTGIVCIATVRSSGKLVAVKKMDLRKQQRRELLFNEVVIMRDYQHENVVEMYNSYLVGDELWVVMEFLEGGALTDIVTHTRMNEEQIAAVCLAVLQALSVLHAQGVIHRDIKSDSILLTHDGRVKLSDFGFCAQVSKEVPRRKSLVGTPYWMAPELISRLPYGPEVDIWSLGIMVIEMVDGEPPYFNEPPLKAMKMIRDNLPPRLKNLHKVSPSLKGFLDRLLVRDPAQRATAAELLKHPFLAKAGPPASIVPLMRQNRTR

Sequence of PAK1 (Q13153 whole entry): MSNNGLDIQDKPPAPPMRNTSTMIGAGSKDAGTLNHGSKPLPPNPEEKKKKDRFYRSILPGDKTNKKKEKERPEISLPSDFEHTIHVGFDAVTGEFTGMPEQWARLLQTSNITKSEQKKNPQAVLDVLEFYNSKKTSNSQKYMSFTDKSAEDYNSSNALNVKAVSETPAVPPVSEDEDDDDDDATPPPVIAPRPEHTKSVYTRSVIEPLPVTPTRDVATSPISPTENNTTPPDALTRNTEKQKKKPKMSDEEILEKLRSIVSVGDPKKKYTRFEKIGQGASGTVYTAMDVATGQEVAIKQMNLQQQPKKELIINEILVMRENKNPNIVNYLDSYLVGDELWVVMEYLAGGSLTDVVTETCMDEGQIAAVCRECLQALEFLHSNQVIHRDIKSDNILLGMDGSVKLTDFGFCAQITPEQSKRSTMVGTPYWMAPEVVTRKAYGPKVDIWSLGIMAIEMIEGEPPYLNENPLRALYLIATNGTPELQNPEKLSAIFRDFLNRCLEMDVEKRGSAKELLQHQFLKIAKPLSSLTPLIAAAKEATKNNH

For the compound `Nc1nccc(-n2cc(C(=O)N3CCNCC3)c3ccc(C#CC4(O)CCCCC4)cc32)n1` [Compound 42], the Ki (as a rule, the equilibrium dissociation constant of an inhibitor or competing ligand from its target) is 4990 nM on PAK1 and 6.6 nM at PAK4 (PAK4 Ki, HTRF, average of two independent experiments). Moreover, the “A549, effect of compounds on the cell mobility” value in the assay on A549 was determined as 65% ^h. Moreover, the LE on PAK4 (Ligand efficiency = (−1.4 Log Ki)/(n heavy atoms), PAK4 Ki) is 0.35. At PAK4 (Ligand lipophilicity efficiency = (−Log Ki) − (cLogP), PAK4 Ki), this compound returned an LLE of 4.97. Moreover, the “fold increase of inhibitory capacity compared to 37” value at PAK4 (PAK4, relative to 37) was found to be 18 fold.

(Values after article PMC9214071 (Acta Pharmaceutica Sinica. B, 2022).)
